Test results taken from US10131652B2, “Pyrimidinyloxy benzene derivatives as herbicides” (E. I. DU PONT DE NEMOURS AND COMPANY, priority 2014, dated 2018).
Like-named read-outs stand apart in the source and are kept apart here.

Assays:
Test in all cases: Test E pre-/postemergence plant response
Type in all cases: in vivo
[1] = tested on: bluegrass (annual bluegrass, Poa annua); conditions: scale 0 to 100, read-out: Plant response rating, Bluegrass; for pest or weed control at 16 g/ha: 16 g ai/ha; for pest or weed control at 31 g/ha: 31 g ai/ha; for pest or weed control at 62 g/ha: 62 g ai/ha; for pest or weed control at 125 g/ha: 125 g ai/ha
Method in brief: (§1)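 Visual scores on a 0–100 scale (100 = complete control) were assigned against untreated controls 7–21 days after treatment in a controlled environment. Compounds, formulated with solvent plus surfactant, were applied to pre-emergence silt-loam sowings or to 1- to 4-leaf plants (2–18 cm) in potting medium.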

[2] = tested on: canarygrass (Phalaris minor); conditions: scale 0 to 100, read-out: Plant response rating, Canarygrass; for pest or weed control at 16 g/ha: 16 g ai/ha; for pest or weed control at 31 g/ha: 31 g ai/ha; for pest or weed control at 62 g/ha: 62 g ai/ha; for pest or weed control at 125 g/ha: 125 g ai/ha
Method in brief: as §1

[3] = tested on: chickweed (common chickweed, Stellaria media); conditions: scale 0 to 100, read-out: Plant response rating, Chickweed; for pest or weed control at 16 g/ha: 16 g ai/ha; for pest or weed control at 31 g/ha: 31 g ai/ha; for pest or weed control at 62 g/ha: 62 g ai/ha; for pest or weed control at 125 g/ha: 125 g ai/ha
Method in brief: as §1

[4] = tested on: downy bromegrass (Bromus tectorum); conditions: scale 0 to 100, read-out: Plant response rating, Bromegrass, Downy; for pest or weed control at 16 g/ha: 16 g ai/ha; for pest or weed control at 31 g/ha: 31 g ai/ha; for pest or weed control at 62 g/ha: 62 g ai/ha; for pest or weed control at 125 g/ha: 125 g ai/ha
Method in brief: as §1

[5] = tested on: galium (catchweed bedstraw, Galium aparine); conditions: scale 0 to 100, read-out: Plant response rating, Galium; for pest or weed control at 16 g/ha: 16 g ai/ha; for pest or weed control at 31 g/ha: 31 g ai/ha; for pest or weed control at 62 g/ha: 62 g ai/ha; for pest or weed control at 125 g/ha: 125 g ai/ha
Method in brief: as §1

[6] = tested on: speedwell (bird's-eye speedwell, Veronica persica); conditions: scale 0 to 100, read-out: Plant response rating, Speedwell; for pest or weed control at 16 g/ha: 16 g ai/ha; for pest or weed control at 62 g/ha: 62 g ai/ha; for pest or weed control at 125 g/ha: 125 g ai/ha
Method in brief: as §1

[7] = tested on: spring barley (Hordeum vulgare); conditions: for plant injury at 16 g/ha: 16 g ai/ha; for plant injury at 31 g/ha: 31 g ai/ha; for plant injury at 62 g/ha: 62 g ai/ha; for plant injury at 125 g/ha: 125 g ai/ha
Method in brief: as §1

[8] = tested on: wild mustard (Sinapis arvensis); conditions: Brassica, scale 0 to 100, read-out: Plant response rating, Mustard, Wild; for pest or weed control at 16 g/ha: 16 g ai/ha; for pest or weed control at 31 g/ha: 31 g ai/ha; for pest or weed control at 62 g/ha: 62 g ai/ha; for pest or weed control at 125 g/ha: 125 g ai/ha
Method in brief: as §1

[9] = tested on: windgrass (Apera spica-venti); conditions: scale 0 to 100, read-out: Plant response rating, Windgrass; for pest or weed control at 16 g/ha: 16 g ai/ha; for pest or weed control at 62 g/ha: 62 g ai/ha; for pest or weed control at 125 g/ha: 125 g ai/ha
Method in brief: as §1

[10] = tested on: winter barley (Hordeum vulgare); conditions: scale 0 to 100, read-out: Plant response rating, Barley, Winter; for plant injury at 16 g/ha: 16 g ai/ha; for plant injury at 31 g/ha: 31 g ai/ha; for plant injury at 62 g/ha: 62 g ai/ha; for plant injury at 125 g/ha: 125 g ai/ha
Method in brief: as §1

[11] = post-emergence, 31 g ai/ha, Postemergence
[12] = post-emergence, Postemergence, scale 0 to 100, read-out: Plant response rating, Barley, Spring
[13] = pre-emergence, Preemergence, scale 0 to 100, read-out: Plant response rating, Barley, Spring

Question: With `FC(F)c1cc(-c2ccccc2Oc2ncc(Br)cn2)no1` [Compound 62, 5-bromo-2-[2-[5-(difluoromethyl)-3-isoxazolyl]phenoxy]pyrimidine] as the compound, how does the pest or weed control at 16 g/ha ([1]; post-emergence, Postemergence) read?
Answer: 10%

Question: What about the pest or weed control at 31 g/ha ([1]; post-emergence, Postemergence) of the same compound?
Answer: 35%

Question: And the pest or weed control at 62 g/ha ([1]; post-emergence, Postemergence)?
Answer: 55%

Question: What about the pest or weed control at 125 g/ha ([1]; post-emergence, Postemergence) of the same compound?
Answer: 60%

Question: And the pest or weed control at 16 g/ha ([1]; pre-emergence, Preemergence)?
Answer: 0%

Question: What about the pest or weed control at 31 g/ha ([1]; pre-emergence, Preemergence) of the same compound?
Answer: 5%

Question: What about the pest or weed control at 62 g/ha ([1]; pre-emergence, Preemergence) of the same compound?
Answer: 10%

Question: And the pest or weed control at 125 g/ha ([1]; pre-emergence, Preemergence)?
Answer: 75%

Question: What about the pest or weed control at 16 g/ha ([2]; post-emergence, Postemergence) of the same compound?
Answer: 25%

Question: What about the pest or weed control at 31 g/ha ([2]; post-emergence, Postemergence) of the same compound?
Answer: 35%

Question: What about the pest or weed control at 62 g/ha ([2]; post-emergence, Postemergence) of the same compound?
Answer: 45%

Question: And the pest or weed control at 125 g/ha ([2]; post-emergence, Postemergence)?
Answer: 55%

Question: And the pest or weed control at 16 g/ha ([2]; pre-emergence, Preemergence)?
Answer: 0%

Question: And the pest or weed control at 31 g/ha ([2]; pre-emergence, Preemergence)?
Answer: 0%

Question: And the pest or weed control at 62 g/ha ([2]; pre-emergence, Preemergence)?
Answer: 50%

Question: What about the pest or weed control at 125 g/ha ([2]; pre-emergence, Preemergence) of the same compound?
Answer: 90%

Question: What about the pest or weed control at 16 g/ha ([3]; post-emergence, Postemergence) of the same compound?
Answer: 65%

Question: What about the pest or weed control at 31 g/ha ([3]; post-emergence, Postemergence) of the same compound?
Answer: 70%

Question: And the pest or weed control at 62 g/ha ([3]; post-emergence, Postemergence)?
Answer: 80%

Question: What about the pest or weed control at 125 g/ha ([3]; post-emergence, Postemergence) of the same compound?
Answer: 90%

Question: And the pest or weed control at 16 g/ha ([3]; pre-emergence, Preemergence)?
Answer: 65%

Question: What about the pest or weed control at 31 g/ha ([3]; pre-emergence, Preemergence) of the same compound?
Answer: 75%

Question: And the pest or weed control at 62 g/ha ([3]; pre-emergence, Preemergence)?
Answer: 100%

Question: What about the pest or weed control at 125 g/ha ([3]; pre-emergence, Preemergence) of the same compound?
Answer: 100%

Question: What about the pest or weed control at 16 g/ha ([4]; post-emergence, Postemergence) of the same compound?
Answer: 10%

Question: What about the pest or weed control at 31 g/ha ([4]; post-emergence, Postemergence) of the same compound?
Answer: 15%

Question: And the pest or weed control at 62 g/ha ([4]; post-emergence, Postemergence)?
Answer: 20%

Question: And the pest or weed control at 125 g/ha ([4]; post-emergence, Postemergence)?
Answer: 40%

Question: And the pest or weed control at 16 g/ha ([4]; pre-emergence, Preemergence)?
Answer: 0%

Question: And the pest or weed control at 31 g/ha ([4]; pre-emergence, Preemergence)?
Answer: 0%

Question: What about the pest or weed control at 62 g/ha ([4]; pre-emergence, Preemergence) of the same compound?
Answer: 10%

Question: And the pest or weed control at 125 g/ha ([4]; pre-emergence, Preemergence)?
Answer: 20%

Question: And the pest or weed control at 16 g/ha ([5]; post-emergence, Postemergence)?
Answer: 70%

Question: And the pest or weed control at 31 g/ha ([5]; post-emergence, Postemergence)?
Answer: 70%

Question: And the pest or weed control at 62 g/ha ([5]; post-emergence, Postemergence)?
Answer: 75%

Question: And the pest or weed control at 125 g/ha ([5]; post-emergence, Postemergence)?
Answer: 90%

Question: And the pest or weed control at 16 g/ha ([5]; pre-emergence, Preemergence)?
Answer: 5%

Question: And the pest or weed control at 31 g/ha ([5]; pre-emergence, Preemergence)?
Answer: 60%

Question: And the pest or weed control at 62 g/ha ([5]; pre-emergence, Preemergence)?
Answer: 65%

Question: And the pest or weed control at 125 g/ha ([5]; pre-emergence, Preemergence)?
Answer: 100%

Question: And the pest or weed control at 16 g/ha ([6]; post-emergence, Postemergence)?
Answer: 70%

Question: And the pest or weed control at 31 g/ha [6, 11]?
Answer: 95%

Question: And the pest or weed control at 62 g/ha ([6]; post-emergence, Postemergence)?
Answer: 100%

Question: What about the pest or weed control at 125 g/ha ([6]; post-emergence, Postemergence) of the same compound?
Answer: 100%

Question: What about the pest or weed control at 16 g/ha ([6]; pre-emergence, Preemergence) of the same compound?
Answer: 95%

Question: And the pest or weed control at 62 g/ha ([6]; pre-emergence, Preemergence)?
Answer: 95%

Question: What about the pest or weed control at 125 g/ha ([6]; pre-emergence, Preemergence) of the same compound?
Answer: 100%

Question: What about the plant injury at 16 g/ha [7, 12] of the same compound?
Answer: 10%

Question: What about the plant injury at 31 g/ha [7, 12] of the same compound?
Answer: 15%

Question: And the plant injury at 62 g/ha [7, 12]?
Answer: 20%

Question: And the plant injury at 125 g/ha ([7]; post-emergence, Postemergence, scale 0 to 100 (0 no effect, 100 complete control), read-out: Plant response rating, Barley, Spring)?
Answer: 25%

Question: What about the plant injury at 16 g/ha [7, 13] of the same compound?
Answer: 0%

Question: What about the plant injury at 31 g/ha [7, 13] of the same compound?
Answer: 0%

Question: What about the plant injury at 62 g/ha [7, 13] of the same compound?
Answer: 0%

Question: What about the plant injury at 125 g/ha [7, 13] of the same compound?
Answer: 0%

Question: And the pest or weed control at 16 g/ha ([8]; post-emergence, Postemergence)?
Answer: 75%

Question: What about the pest or weed control at 31 g/ha ([8]; post-emergence, Postemergence) of the same compound?
Answer: 100%

Question: And the pest or weed control at 62 g/ha ([8]; post-emergence, Postemergence)?
Answer: 100%

Question: What about the pest or weed control at 125 g/ha ([8]; post-emergence, Postemergence) of the same compound?
Answer: 100%

Question: And the pest or weed control at 16 g/ha ([8]; pre-emergence, Preemergence)?
Answer: 25%

Question: What about the pest or weed control at 31 g/ha ([8]; pre-emergence, Preemergence) of the same compound?
Answer: 80%

Question: And the pest or weed control at 62 g/ha ([8]; pre-emergence, Preemergence)?
Answer: 95%

Question: What about the pest or weed control at 125 g/ha ([8]; pre-emergence, Preemergence) of the same compound?
Answer: 100%

Question: And the pest or weed control at 16 g/ha ([9]; post-emergence, Postemergence)?
Answer: 10%

Question: And the pest or weed control at 31 g/ha [9, 11]?
Answer: 20%

Question: What about the pest or weed control at 62 g/ha ([9]; post-emergence, Postemergence) of the same compound?
Answer: 30%

Question: What about the pest or weed control at 125 g/ha ([9]; post-emergence, Postemergence) of the same compound?
Answer: 65%

Question: And the pest or weed control at 16 g/ha ([9]; pre-emergence, Preemergence)?
Answer: 0%

Question: What about the pest or weed control at 62 g/ha ([9]; pre-emergence, Preemergence) of the same compound?
Answer: 50%

Question: What about the pest or weed control at 125 g/ha ([9]; pre-emergence, Preemergence) of the same compound?
Answer: 50%

Question: And the plant injury at 16 g/ha ([10]; post-emergence, Postemergence)?
Answer: 5%

Question: And the plant injury at 31 g/ha ([10]; post-emergence, Postemergence)?
Answer: 10%

Question: What about the plant injury at 62 g/ha ([10]; post-emergence, Postemergence) of the same compound?
Answer: 20%

Question: And the plant injury at 125 g/ha ([10]; post-emergence, Postemergence)?
Answer: 35%

Question: What about the plant injury at 16 g/ha ([10]; pre-emergence, Preemergence) of the same compound?
Answer: 0%

Question: And the plant injury at 31 g/ha ([10]; pre-emergence, Preemergence)?
Answer: 0%

Question: What about the plant injury at 62 g/ha ([10]; pre-emergence, Preemergence) of the same compound?
Answer: 5%

Question: What about the plant injury at 125 g/ha ([10]; pre-emergence, Preemergence) of the same compound?
Answer: 5%
